Values quoted from earlier work, collected in patent US6645392B2, “Method of removing wrinkles from fabric” (The Procter & Gamble Company, priority 2000, dated 2003).

Details: for water solubility: in water

Row | SMILES | water solubility | solubility in water
1 | OCCOc1ccccc1 [2-phenoxyethanol] | about 2.67% | 
2 | OCCc1ccccc1 [2-phenylethanol] | about 2% | 
3 | O=[N+]([O-])C1(Br)COCOC1 [Bronidox L, 5-bromo-5-nitro-1,3-dioxane] | about 0.46% | 
4 | O=[N+]([O-])C(Br)(CO)CO [Bronopol, 2-bromo-2-nitropropane-1,3-diol] | about 25% | 
5 | CC1(C)C(=O)N(CO)C(=O)N1CO [DMDM hydantoin, 1,3-bis(hydroxymethyl)-5,5-dimethyl-2,4-imidazolidinedione] | more than 50% | 
6 | ClC=CC[N+]12CN3CN(CN(C3)C1)C2.[Cl-] [Dowicil 200, 1-(3-Chlorallyl)-3,5,7-triaza-1-azoniaadamantane chloride] |  | freely soluble in water
7 | OCc1ccccc1 [benzyl alcohol] | about 4% | 
8 | [H]/N=C(\N/C(=N/[H])NCCCCCCNC(=N)NC(=N)Nc1ccc(Cl)cc1)Nc1ccc(Cl)cc1 [chlorhexidine diacetate, 1,1′-hexamethylene bis(5-(p-chlorophenyl)biguanide), reference compound] | about 1.8% | 
9 | [H]/N=C(\N/C(=N/[H])NCCCCCCNC(=N)NC(=N)Nc1ccc(Cl)cc1)Nc1ccc(Cl)cc1 [chlorhexidine digluconate, 1,1′-hexamethylene bis(5-(p-chlorophenyl)biguanide), reference compound] | about 70% | 
10 | CC(C)(O)C(Cl)(Cl)Cl [chlorobutanol, 1,1,1-Trichloro-2-methylpropan-2-ol] | about 0.8% | 
11 | [Na+].[O-][n+]1ccccc1[S-] [sodium pyrithione] | about 50% | 
